Results published in a melting point compilation (Tetko et al.; mined from patent text by program, amines drawn as free bases though some values may be those of a salt).

| melting point | SMILES |
| --- | --- |
| 150 to 152 °C | CCOC(=O)c1ccc(OC)nc1C(F)(F)F |
| 76.5 to 78 °C | COC(CNC(=O)c1cccc(C(=O)NCC(OC)OC)c1)OC |
| 121 to 124 °C | CC(Oc1ccc(Br)cc1)c1ccnc2ncnn12 (stereo not given) |
| 164 to 165 °C | CCn1c(C)c(C)cc(C(=O)O)c1=O |
| 87 to 89 °C | COc1ccc(C(=O)CC(=O)C(F)(F)F)cc1OC |
| 128 to 130 °C | CCCSc1nc(N)nc2c1ncn2C1C=CC(CO)C1 (stereo not given) |
| 205 °C | Cc1cccc(-c2[nH]cnc2-c2ccc(F)c(Br)c2)n1 |
| 92 °C | CC(C)(C)c1csc(N)c1C#N |
| 68 to 69 °C | C=CCN(C(=O)c1ccco1)c1c(C)cccc1C |
| 105 to 108 °C | C=CCS(=O)(=O)c1ccc(NN=C(C)C)cc1 |
| 143 to 145 °C | COc1ccc2c(c1OC(C)=O)NC(OC)C1CCCN1C2=O (stereo not given) |
| 141 to 142 °C | CC(C)Nc1c(C#N)cnn1-c1ccc(Cl)c(Cl)c1Cl |
| 83 to 85 °C | CCOC(=O)C1CCCCN1C(=O)Nc1cc(C(=O)OC(C)C)c(Cl)cc1F (stereo not given) |
| 186 to 188 °C | CC(C)(C)OC(=O)NN1CCNC1=O |
| 45 to 47 °C | COc1cc(C(=O)CCN(C)C)cc(OC)c1OC |
| 108 to 109 °C | CCN(CC)C(=O)n1c(SC(F)(F)C(F)F)nc(-c2ccccc2)c1-c1ccccc1 |
| 88 °C | CCSC1=C(C#N)C(c2ccccc2)(c2ccccc2)C(=O)N1CCCNC(=O)OC(C)(C)C |
| 246 °C | Cn1c(=O)[nH]c2cc(CN3CCN(C(c4ccccc4)c4ccccc4)CC3)ccc21 |
| 133 to 136 °C | O=C(O)[C@@H]1C[C@H](O)CN1C(=O)c1ccccc1 |
| 169 to 173 °C | CCOC(=O)C(C)C(NC(C)=O)C(C(C)=O)C(=O)Nc1ccc(Cl)cc1 (stereo not given) |
| 222 to 224 °C | CCn1c(=O)ccc2cnc(Nc3ccc(O)cc3)nc21 |
| 220 to 223 °C | CCOc1ncc(C(C)=O)cc1C(=O)Nc1c(C(N)=O)nn(C2CN(C(=O)OC(C)(C)C)C2)c1CC |
| 139 to 140 °C | CCOC(=O)c1cn(C2CC2)c2c(F)c(F)c(F)c(CC)c2c1=O |

| melting point | SMILES |
| --- | --- |
| 201 to 207 °C | Cn1nnnc1SCC1c2cc(O)c(O)cc2CCN1C(=O)OCC(Cl)(Cl)Cl (stereo not given) |
| 206 to 207 °C | O=S(=O)(Nc1cccc(COc2cccc3cccnc23)c1)c1ccc(F)cc1 |
| 162 to 163 °C | CCOCc1nc2c(N)nc3cccnc3c2n1CC1(O)CCC1 |
| 127 to 130 °C | CCN(CC)c1ccc2cc(-c3nc(-c4ccccc4)cs3)c(=O)oc2c1 |
| 128 to 129 °C | Cc1c(CO)c2cnnc(OCc3ccc(F)cc3)c2n1C[C@H]1C[C@@H]1C |
| 124 to 125 °C | Cc1c(C(=O)NCC(N)=O)cccc1-c1cccc2cc(Cc3cccc(C(F)(F)F)c3)sc12 |
| 107 to 108 °C | COC(=O)[C@@H](NC(=O)OCc1ccccc1)[C@H](O)c1ccccc1 |
| 143 to 147 °C | CCCc1c(CSc2nnc(N)s2)ccc(C(C)=O)c1O |
| 144 to 146 °C | CC(C)(C)C(=O)NCCc1ccc(O)c(O)c1 |
| 162 to 166 °C | O=C1N(Cc2cn(C(c3ccccc3)(c3ccccc3)c3ccccc3)cn2)CCN1c1cccc(Cl)c1 |
| 172 to 174 °C | CNC(=O)[C@H]1CN(c2ccc3c(c2)sc(=O)n3C(C)C)C(=O)O1 |
| 212 to 213 °C | CC1(C)CCC(C)(C)c2cc(C(=O)c3ccc(C(=O)O)cc3)c(OCc3ccccc3)cc21 |
| 85 to 86 °C | CCOC(=O)COc1c(CC=C(C)C)c(OC)cc(OC)c1C(=O)C=Cc1ccc(OC)cc1 |
| 158 °C | CON(C)C(=O)c1cc(-n2c(=O)cc(C(F)(F)F)n(C)c2=O)c(F)cc1Cl |
| 185 to 195 °C | CCCCCCCCCCCCCCCCCCOc1cc(N)cc(N(CC(=O)O)CC(=O)O)c1 |
| 136 to 138 °C | CC(=O)NC1=NN(c2ccc(F)cc2)C(C)C1 (stereo not given) |
| 257 to 258 °C | Cc1nc2c(N)cc(Br)cc2n1O |
| 217 to 218 °C | CC(=O)c1ccc(C=CC(=O)N2CCc3c([nH]c4ccccc34)C2c2ccc3c(c2)OCO3)cc1O (stereo not given) |
| 233 to 235 °C | Cc1cccc(-c2[nH]c(C(C)C)nc2-c2ccc(F)c(-c3c[nH]nn3)c2)n1 |
| 267 to 268 °C | C[C@@H](NC(=O)c1c[nH]c2ncc(-c3nn(C)c4cc(Cl)cc(F)c34)nc12)C(=O)N1CC(C#N)C1 |
| 151 to 152 °C | O=C1OC(C2CCCCC2)(C2CCCCC2)C2CNCCN12 (stereo not given) |
| 233 to 235 °C | CNC(=O)c1cc(-c2ccc(F)cc2)c2c3c(ccc2n1)OCO3 |
| 77 °C | CS(=O)(=O)c1ccc(-c2cc(CCCO[N+](=O)[O-])nn2C2CCCCC2)cc1 |

| melting point | SMILES |
| --- | --- |
| 127 to 159 °C | COc1ccc(Br)cc1-c1cc(-c2ccc(Br)cc2)on1 |
| 229 to 230 °C | CCCOc1ccc(/C=C/C(=O)O)cc1-c1nc2c(CCC)nn(C)c2c(=O)[nH]1 |
| 113 to 115 °C | CC1(C)OCCC2C(C3(O)CCSC3)C(=O)N21 (stereo not given) |
| 195 °C | COc1cc(CCN2CCCCC2)cc(OC)c1-c1ccc(C[C@H](NC(=O)c2c(Cl)cccc2Cl)C(=O)O)cc1 |
| 267 to 269 °C | COc1ccc(C=Cn2ncc3ccccc3c2=O)cc1 |
| 114 to 116 °C | CC1CCCCN1C(=O)C=Cc1ccc(F)cc1 (stereo not given) |
| > 300 °C | Cc1nc(-c2cc3[nH]c(=O)c(=O)[nH]c3cc2[N+](=O)[O-])c[nH]1 |
| 164 to 166 °C | CCOC(=O)c1cn(-c2ccc([N+](=O)[O-])cn2)nc1SCc1ccccc1 |
| 141 to 144 °C | CC(C)(C)OC(=O)NCOc1ccccc1C(=O)O |
| 95 to 97 °C | OC/C=C/C=C/c1ccc(OCC(F)(F)C(F)F)cc1 |
| 137 to 139 °C | N#CN=C(Nc1cccnc1)NC(NC(=O)c1ccc(Cl)cc1)C1CC1 (stereo not given) |
| 194 to 195 °C | CC(C)(C(N)=O)c1cn2nc(Cl)ccc2n1 |
| 175 to 176 °C | Cc1ccc(S(=O)(=O)N2CCC(c3cccc4c3CCCC(C(=O)Nc3ccc(CN(C)C5CCOCC5)cc3)=C4)CC2)cc1 |
| 290 to 291 °C | Cc1ccc2c(c1NC(=O)CC1c3ccccc3Oc3ccccc31)OC(C)C2 (stereo not given) |
| 169 to 170 °C | CCOC(=O)c1cc([N+](=O)[O-])c2ccccn2c1=O |
| 98 to 100 °C | COC(=O)C1=C(C)NC(c2ncsc2Cl)=NC1c1ccc(F)cc1Cl (stereo not given) |
| 141 to 143 °C | CCCCCNc1cccc2c1C(=O)N(C1CCC(=O)NC1=O)C2=O (stereo not given) |
| 218 to 219 °C | CC1(NC2=NS(=O)(=O)c3sc(Cl)cc3N2)CCCCC1 |
| 241 to 243 °C | CC(=O)Nc1cc(Cn2c(C(=O)c3cc(C)cc(Cl)c3)c(C(C)C)c(=O)[nH]c2=O)ccn1 |
| 137 °C | O=[N+]([O-])c1cnccc1NCc1ccc(F)cc1 |
| 115 to 117 °C | O=C(C1=Cc2ccccc2C1)c1ccc(OC(F)(F)F)cc1 |
| 160 to 161 °C | COc1ccc(C2=C(c3ccc(OC4CCCCO4)cc3)CCCc3cc(OC4CCCCO4)ccc32)cc1 (stereo not given) |
| 88 to 89 °C | CCCCCCCCCCCCCCCCCC(=O)NCCCSc1ccncc1 |

| melting point | SMILES |
| --- | --- |
| 179 to 180 °C | COc1cc(C)c(C=CC=CC=C(C)C(=O)O)c(C)c1C |
| 96 to 98 °C | CCCn1cnc2c1c(=O)n(CCCC(C)(C)O)c(=O)n2C |
| 66 to 70 °C | CS(=O)(=O)OCC1(c2ccc(Cl)cc2)CCC1 |
| 110 to 112 °C | C=Cc1ccc(-c2ncccc2S(=O)(=O)Nc2ncc(C)nc2OC)cc1 |
| 154 to 156 °C | Cc1ccc(N)c(OCCOc2cc(C(=O)OC(C)(C)C)ccc2N)c1 |
| 158 to 159 °C | ON=Cc1ccc2c(c1)COC2c1ccc(F)cc1 (stereo not given) |
| 257 to 258 °C | CCOC(=O)c1cn2c3c(c(F)c(F)cc3c1=O)OCC2C (stereo not given) |
| 53 to 54 °C | CC(=O)C1CC(c2ccccc2)CCC1=O (stereo not given) |
| 123 to 126 °C | CN(C)CCC1=Cc2ccc(OCc3ccc(-c4ccccc4)cc3)cc2CC1 |
| 205 to 207 °C | O=C1CC2(C(=O)N1)C(=O)N(Cc1ccc(Cl)c(Cl)c1)c1ccccc12 (stereo not given) |
| 90 to 92 °C | COC(=S)c1cc(C)nc(Cl)n1 |
| 273 to 275 °C | O=c1oc2c(c(O)c1Sc1ccc(Cl)cc1)c(=O)n(Cc1ccccc1)c1ccccc21 |
| 106 to 108 °C | COc1ccc(C[C@](C)(N[C@@H](C(N)=O)c2ccccc2)C(N)=O)cc1 |
| 244 to 247 °C | CCOc1cc(-c2ccc3c(c2)C=C(C(=O)Nc2ccc(CN(C)C4CCOCC4)cc2)CCS3(=O)=O)ccc1C#N |
| 128 to 129 °C | Cc1cc(C)cc(COCC(NC(=O)c2ccccc2)C(c2ccccc2)c2ccccc2)c1 (stereo not given) |
| 155 to 156 °C | O=C1CCC(C(=O)NCc2cccc3ccccc23)c2ccccc21 (stereo not given) |
| 168 to 170 °C | CCC1COC(=NO)C(=O)N1C (stereo not given) |
| 72 to 73 °C | COCCNC(=O)c1cccc(CN2C(=O)C3(COc4cc5c(cc43)CCO5)c3ccccc32)c1 (stereo not given) |
| 211 to 213 °C | COc1ccc2c(=O)c3c(Cl)ccc([N+](=O)[O-])c3oc2c1 |
| 250 to 255 °C | Nc1nc2ccc(S(=O)(=O)n3c(CCC(=O)O)cc4cc(Cl)ccc43)cc2s1 |
| 168 to 169 °C | COc1ccc(NC(=O)c2cccc(OC)c2N)cc1 |
| 52 to 53 °C | CCN(CC)C(=O)c1ccccc1-c1ccc2ccccc2c1 |
| 134 to 136 °C | CCCNC(C=Cc1ccccc1Cl)=NC#N |

| SMILES | melting point |
| --- | --- |
| O=C1CCC(C(=O)Nc2ccc(Cl)cc2C(=O)c2ccccc2Cl)O1 (stereo not given) | 170 to 173 °C |
| C[C@]12CC[C@H]3[C@@H](CCC4=CC(=O)CC[C@@]43COC(=O)C34CC5CC(CC(C5)C3)C4)[C@@H]1CCC2=O | 161 to 163 °C |
| COC(=O)N(C(=O)C(=O)c1cn(Cc2ccc(Cl)cc2)c2ccccc12)c1ccc2ncccc2c1 | 178 °C |
| Cc1c(NC(=O)CC(C)(C)C)c(C)c2c(c1C(C)O)OCC2c1ccc(C(C)C)cc1 (stereo not given) | 156 to 157 °C |
| CN1CCN(C(=O)OC2c3cc(Cl)ccc3C(=O)N2c2ccc3ccc(Cl)nc3n2)CC1 (stereo not given) | 280 °C |
| COc1cc2c(cc1Br)CC(C)N(C(=O)C1CC1)N=C2c1ccc([N+](=O)[O-])cc1 (stereo not given) | 194 to 196 °C |
| NC1N=C(c2ccccc2)c2ccccc2NC1=O (stereo not given) | 196 to 197 °C |
| C[C@H](N)Cn1ncc2ccc3oc(C(=O)NCC4(O)CC4)cc3c21 | 77 to 79 °C |
